Measured values taken from US12612388B2, “Receptor-interacting protein 1 inhibitors including piperazine heterocyclic amide ureas” (SIRONAX LTD., priority 2020, dated 2026).

test system: HT-29 cells; assay: Cellular RIP1 inhibitory activity: necroptosis of HT-29 cells induced by TNF-α/SMAC mimetic/zVAD-FMK, CellTiter-Glo viability; type: cell-based; settings: Homo sapiens, HT-29, 20 h, read-out: EC50 (Cell activity; Necrosis or Necroptosis Inhibitory Activity)
Method: In Table 2, activity is provided as follows: +++=0.1 nM≤EC50<100 nM; ++=100 nM≤EC50K<1000 nM; +=1000 nM≤EC50K<10000 nM.
Compounds 1-67 (denoted as Compound Nos. 1 through 67 in Table 1) of the disclosure were tested for binding and cellular RIP1 inhibitory activity following the experimental procedures described below.
Cell line: HT-29 (ATCC® HTB-38™)
Culture medium: McCOY's 5A, Gibco, Cat No. 16600-082
DMSO: Sigma, Cat No. 67-68-5, 1 L
Assay plate: Corning #3903
Compound dilution plate: Corning #3357
Inducers: TNFα, GenScript, Cat No. Z01001-50,
SmacM, Cat. No., HY-15989, MedChemExpress (MCE)
Z_VAD FMK, TargetMol, T6013
Cell Titer-Glo® Luminescent Cell Viability Assay Kit: Promega, Cat No. G7573
1. HT-29 cells were checked every day to make sure that they were healthy and growing as expected. They were subjected to sub-culturing when they were approximately 80% confluent.
2. The culture medium, McCOY's 5A medium (Gibco, Cat No. 16600-082) with 10% fetal bovine serum or FBS (Gibco, Cat No. 10099-141C), was pre-warmed in a 37° C. water bath for at least 30 min.
3. When the cells had reached a desired level of confluency of 80% in a T75 flask, the medium was aspirated, and the cells were washed with warm phosphate buffered saline or PBS two times.
4. 2-3 ml fresh warm trypsin (Gibco, Cat No. 25200-056) solution was added to the washed cells. The flask with the cells was transferred to a 37° C. incubator.
5. After 5 minutes, the side of the flask was tapped, and the flask was examined under a microscope for detachment of the cells to the flask. If necessary, the cells were kept in the incubator for an additional 5-10 minutes, with occasional tapping, until lifting was complete.
6. The trypsin reaction was neutralized by transferring 6-9 ml cell culture medium to sterile 15 ml conical tubes, and by centrifuging the cell culture at 300×g for 7 minutes to pellet the cells (supernatant decanted).
7. The cells were resuspended in fresh cell culture medium and the cell counting was performed using a hemocytometer.
8. 100 μl of the resuspended cell culture medium containing ˜5,000 cells were transferred into each well of the sterile 96-well cell culture plate (Corning 3903) and cultured overnight at 37° C. with 5% CO2.
Compound Titration and Treatment
1. All test compounds were dissolved in DMSO (Dimethyl sulfoxide) to create a 20 mM stock.
2. 3 μl of each compound 20 mM stock was mixed with 27 μl DMSO, and the compound solution was further diluted at a titration ratio of 1:3 (20 μl compound solution+40 μl DMSO) till the 10 points end.
3. All culture medium was removed from assay plates filled with HT-29 cell cultures. The cells were then washed with 1 PBS, and resuspended in fresh, FBS-free McCOY's 5A medium containing a cocktail of TNF-α (10 ng/ml), a SMAC mimetic compound (6 μM) and Z-VAD-fluoromethylketone or zVAD-FMK (10 μM) to stimulate the HT-29 cells to increase RIP1 kinase levels and necroptosis.
4. 0.5 μL of the diluted compound solution was added to the corresponding 96-well assay plates.
5. The assay plates were incubated for 20 hours at 37° C. with 5% CO2.
1. The CellTiter-Glo® Luminescent Cell Viability Assay was employed to detect the ATP levels of viable HT-29 cells.
2. The CellTiter-Glo® buffer and the lyophilized substrate were equilibrated to room temperature prior to use.
3. The CellTiter-Glo® substrate was resuspended with CellTiter-Glo® buffer, then mixed by gently vortexing to obtain a homogeneous solution.
4. 20 μl the enzyme/substrate mixture was transferred by multi-channel pipetting into 96-well assay plates.
5. The assay plates were placed on an orbital shaker and the contents were shaken for 3 minutes to induce cell lysis.
6. The assay plates were incubated at room temperature for 10 minutes to stabilize the luminescent signal.
7. The luminescence signals were read and recorded with EnVision.
8. The geometric mean EC50 values were calculated from 10 points response dose with duplicates. […]

Q: With `O=C(c1nc(N2CCN(C(=O)N3N=CC[C@H]3c3cc(F)cc(F)c3)CC2)ncc1F)N1CCC1` [Compound 7, (S)-azetidin-1-yl(2-(4-(5-(3,5-difluorophenyl)-4,5-dihydro-1H-pyrazole-1-carbonyl)piperazin-1-yl)-5-fluoropyrimidin-4-yl)methanone] as the compound, how does the EC50 read?
A: Its EC50 is 0.0001 to 0.1 µM.

same assay, conditions: Homo sapiens; HT-29 cells; TNF-α 10 ng/ml, SMAC mimetic 6 μM, zVAD-FMK 10 μM; 20 hours; geometric mean, 10 points, duplicates; read-out: EC50 (Cell activity; Necrosis or Necroptosis Inhibitory Activity)

Q: For `N#CC=C1CN(C(=O)c2nc(N3CCN(C(=O)N4N=CC[C@H]4c4cc(F)cc(F)c4)CC3)ncc2F)C1` [Compound 57, (S)-2-(1-(2-(4-(5-(3,5-difluorophenyl)-4,5-dihydro-1H-pyrazole-1-carbonyl)piperazin-1-yl)-5-fluoropyrimidine-4-carbonyl)azetidin-3-ylidene)acetonitrile], which EC50 is on record?
A: Its EC50 is 0.0001 to 0.1 µM.

Q: For `CNC(=O)c1ccnc(N2CCN(C(=O)N3N=CC[C@H]3c3cc(F)cc(F)c3)CC2)n1` [Compound 46, (S)-2-(4-(5-(3,5-difluorophenyl)-4,5-dihydro-1H-pyrazole-1-carbonyl)piperazin-1-yl)-N-methylpyrimidine-4-carboxamide], which EC50 is on record?
A: The EC50 was 0.0001 to 0.1 µM.

Q: Which EC50 does the source give for `COc1cnc(N2CCN(C(=O)N3N=CC[C@H]3c3cc(F)cc(F)c3)CC2)nc1C(N)=O` [Compound 62, (S)-2-(4-(5-(3,5-difluorophenyl)-4,5-dihydro-1H-pyrazole-1-carbonyl)piperazin-1-yl)-5-methoxypyrimidine-4-carboxamide] here?
A: Its EC50 is 0.1 to 1 µM.

Q: With `NC(=O)c1cc(N2CCN(C(=O)N3N=CC[C@H]3c3cc(F)cc(F)c3)CC2)c(F)cn1` [Compound 67, (S)-4-(4-(5-(3,5-difluorophenyl)-4,5-dihydro-1H-pyrazole-1-carbonyl)piperazin-1-yl)-5-fluoropicolinamide] as the compound, how does the EC50 read?
A: The EC50 was 0.1 to 1 µM.

Q: With `N#CCC1CN(C(=O)c2nc(N3CCN(C(=O)N4N=CC[C@H]4c4cc(F)cc(F)c4)CC3)ncc2F)C1` [Compound 58, (S)-2-(1-(2-(4-(5-(3,5-difluorophenyl)-4,5-dihydro-1H-pyrazole-1-carbonyl)piperazin-1-yl)-5-fluoropyrimidine-4-carbonyl)azetidin-3-yl)acetonitrile] as the compound, how does the EC50 read?
A: Its EC50 is 0.0001 to 0.1 µM.

Q: With `N#Cc1cncc([C@@H]2CC=NN2C(=O)N2CCN(c3nccc(C(N)=O)n3)CC2)c1` [Compound 43, (S)-2-(4-(5-(5-cyanopyridin-3-yl)-4,5-dihydro-1H-pyrazole-1-carbonyl)piperazin-1-yl)pyrimidine-4-carboxamide] as the compound, how does the EC50 read?
A: Its EC50 is 0.1 to 1 µM.

Q: With `CN(C)[C@@H]1CCN(C(=O)c2nc(N3CCN(C(=O)N4N=CC[C@H]4c4cc(F)cc(F)c4)CC3)ncc2F)C1` [Compound 32, ((S)-5-(3,5-difluorophenyl)-4,5-dihydro-1H-pyrazol-1-yl)(4-(4-((R)-3-(dimethylamino)pyrrolidine-1-carbonyl)-5-fluoropyrimidin-2-yl)piperazin-1-yl)methanone] as the compound, how does the EC50 read?
A: Its EC50 is 0.0001 to 0.1 µM.

Q: How did the EC50 turn out when `N#C[C@H]1CCN(C(=O)c2nc(N3CCN(C(=O)N4N=CC[C@H]4c4cc(F)cc(F)c4)CC3)ncc2F)C1` [Compound 15, (3S)-1-(2-(4-(5-(3,5-difluorophenyl)-4,5-dihydro-1H-pyrazole-1-carbonyl)piperazin-1-yl)-5-fluoropyrimidine-4-carbonyl)pyrrolidine-3-carbonitrile] was run?
A: Its EC50 is 0.0001 to 0.1 µM.

Q: For `CCN(O)C(=O)c1nc(N2CCN(C(=O)N3N=CC[C@H]3c3cc(F)cc(F)c3)CC2)ncc1F` [Compound 11, (S)-2-(4-(5-(3,5-difluorophenyl)-4,5-dihydro-1H-pyrazole-1-carbonyl)piperazin-1-yl)-N-ethyl-5-fluoro-N-hydroxypyrimidine-4-carboxamide], which EC50 is on record?
A: Its EC50 is 0.0001 to 0.1 µM.

Q: `C=C1CN(C(=O)c2nc(N3CCN(C(=O)N4N=CC[C@H]4c4cc(F)cc(F)c4)CC3)ncc2F)C1` [Compound 55, (S)-(5-(3,5-difluorophenyl)-4,5-dihydro-1H-pyrazol-1-yl)(4-(5-fluoro-4-(3-methyleneazetidine-1-carbonyl)pyrimidin-2-yl)piperazin-1-yl)methanone] was tested. Which EC50 did it give?
A: Its EC50 is 0.0001 to 0.1 µM.

Q: `COC1CN(C(=O)c2nc(N3CCN(C(=O)N4N=CC[C@H]4c4cncc(C#N)c4)CC3)ncc2F)C1` [Compound 53, (S)-5-(1-(4-(5-fluoro-4-(3-methoxyazetidine-1-carbonyl)pyrimidin-2-yl)piperazine-1-carbonyl)-4,5-dihydro-1H-pyrazol-5-yl)nicotinonitrile] was tested. Which EC50 did it give?
A: Its EC50 is 0.0001 to 0.1 µM.

Q: How did the EC50 turn out when `CONC(=O)c1nc(N2CCN(C(=O)N3N=CC[C@H]3c3cc(F)cc(F)c3)CC2)ncc1F` [Compound 3, (S)-2-(4-(5-(3,5-difluorophenyl)-4,5-dihydro-1H-pyrazole-1-carbonyl)piperazin-1-yl)-5-fluoro-N-methoxypyrimidine-4-carboxamide] was run?
A: The EC50 was 0.1 to 1 µM.

Q: `COC1CN(C(=O)c2nc(N3CCN(C(=O)N4N=CC[C@H]4c4cncc(F)c4)CC3)ncc2F)C1` [Compound 52, (S)-(5-fluoro-2-(4-(5-(5-fluoropyridin-3-yl)-4,5-dihydro-1H-pyrazole-1-carbonyl)piperazin-1-yl)pyrimidin-4-yl)(3-methoxyazetidin-1-yl)methanone] was tested. Which EC50 did it give?
A: The EC50 was 0.0001 to 0.1 µM.

Q: Which EC50 does the source give for `CN(C)[C@H]1CCN(C(=O)c2nc(N3CCN(C(=O)N4N=CC[C@H]4c4cc(F)cc(F)c4)CC3)ncc2F)C1` [Compound 31, ((S)-5-(3,5-difluorophenyl)-4,5-dihydro-1H-pyrazol-1-yl)(4-(4-((S)-3-(dimethylamino)pyrrolidine-1-carbonyl)-5-fluoropyrimidin-2-yl)piperazin-1-yl)methanone] here?
A: The EC50 was 0.0001 to 0.1 µM.

Q: Which EC50 does the source give for `NC(=O)c1nc(N2CCN(C(=O)N3N=CC[C@H]3c3cc(F)cc(F)c3)CC2)ncc1F` [Compound 48, (S)-2-(4-(5-(3,5-difluorophenyl)-4,5-dihydro-1H-pyrazole-1-carbonyl)piperazin-1-yl)-5-fluoropyrimidine-4-carboxamide] here?
A: Its EC50 is 0.0001 to 0.1 µM.

Q: Which EC50 does the source give for `CC(C)OC1CN(C(=O)c2ccnc(N3CCN(C(=O)N4N=CC[C@H]4c4cc(F)cc(F)c4)CC3)n2)C1` [Compound 37, (S)-(5-(3,5-difluorophenyl)-4,5-dihydro-1H-pyrazol-1-yl)(4-(4-(3-isopropoxyazetidine-1-carbonyl)pyrimidin-2-yl)piperazin-1-yl)methanone] here?
A: Its EC50 is 0.0001 to 0.1 µM.

Q: How did the EC50 turn out when `COC1CN(C(=O)c2nc(N3CCN(C(=O)N4N=CC[C@H]4c4cncc(Cl)c4)CC3)ncc2Cl)C1` (stereo in doubt) [Compound 65, (5-chloro-2-(4-(5-(5-chloropyridin-3-yl)-4,5-dihydro-1H-pyrazole-1-carbonyl)piperazin-1-yl)pyrimidin-4-yl)(3-methoxyazetidin-1-yl)methanone] was run?
A: The EC50 was 0.0001 to 0.1 µM.

Q: With `CN(CC#N)C(=O)c1nc(N2CCN(C(=O)N3N=CC[C@H]3c3cc(F)cc(F)c3)CC2)ncc1F` [Compound 34, (S)—N-(cyanomethyl)-2-(4-(5-(3,5-difluorophenyl)-4,5-dihydro-1H-pyrazole-1-carbonyl)piperazin-1-yl)-5-fluoro-N-methylpyrimidine-4-carboxamide] as the compound, how does the EC50 read?
A: The EC50 was 0.0001 to 0.1 µM.

Q: How did the EC50 turn out when `NC(=O)[C@H]1CCN(C(=O)c2nc(N3CCN(C(=O)N4N=CC[C@H]4c4cc(F)cc(F)c4)CC3)ncc2F)C1` [Compound 26, (S)-1-(2-(4-((S)-5-(3,5-difluorophenyl)-4,5-dihydro-1H-pyrazole-1-carbonyl)piperazin-1-yl)-5-fluoropyrimidine-4-carbonyl)pyrrolidine-3-carboxamide] was run?
A: The EC50 was 0.0001 to 0.1 µM.

Q: For `NC(=O)c1cc(N2CCN(C(=O)N3N=CC[C@H]3c3cc(F)cc(F)c3)CC2)ncn1` [Compound 40, (S)-6-(4-(5-(3,5-difluorophenyl)-4,5-dihydro-1H-pyrazole-1-carbonyl)piperazin-1-yl)pyrimidine-4-carboxamide], which EC50 is on record?
A: The EC50 was 0.0001 to 0.1 µM.
